Experimental data published in PubChem BioAssay AID2060601 (Molecular Pharmacology Branch, DTP, NCI, 2025).

System: 874868-142-R-J2-PDC complex spheroids, growth % test/control
Test: Anticancer human tumor 874868-142-R-J2-PDC patient-derived head and neck squamous carcinoma cell line growth inhibition [CLK]
Conditions: for IC50: curve of first compound; for viability, T/C: stronger effect = lower value
How it was run: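 Multi-cell-type spheroids combined patient-derived tumor cells with HUVEC endothelial cells and human mesenchymal stem cells. Paired agents were dosed in half-log steps down from about clinical Cmax, or from 10 microM where Cmax was unknown.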

[1] = second compound 0.0316 µM, first compound 0.0316 µM
[2] = second compound 0.0316 µM, first compound 0.1 µM
[3] = second compound 0.1 µM, first compound 0.0316 µM
[4] = second compound 0.1 µM, first compound 0.1 µM
[5] = second compound 0.316 µM, first compound 0.0316 µM
[6] = second compound 0.316 µM, first compound 0.1 µM
[7] = second compound 1 µM, first compound 0.0316 µM
[8] = second compound 1 µM, first compound 0.1 µM
[9] = second compound 3.16 µM, first compound 0.0316 µM
[10] = second compound 3.16 µM, first compound 0.1 µM
[11] = second compound 10 µM, first compound 0.0316 µM
[12] = second compound 10 µM, first compound 0.1 µM
[13] = second compound 0.0316 µM, first compound 0.316 µM
[14] = second compound 0.0316 µM, first compound 1 µM
[15] = second compound 0.0316 µM, first compound 3.16 µM
[16] = second compound 0.0316 µM, first compound 10 µM
[17] = second compound 0.1 µM, first compound 0.316 µM
[18] = second compound 0.1 µM, first compound 1 µM
[19] = second compound 0.1 µM, first compound 3.16 µM
[20] = second compound 0.1 µM, first compound 10 µM
[21] = second compound 0.316 µM, first compound 0.316 µM
[22] = second compound 0.316 µM, first compound 1 µM
[23] = second compound 0.316 µM, first compound 3.16 µM
[24] = second compound 0.316 µM, first compound 10 µM
[25] = second compound 1 µM, first compound 0.316 µM
[26] = second compound 1 µM, first compound 1 µM
[27] = second compound 1 µM, first compound 3.16 µM
[28] = second compound 1 µM, first compound 10 µM
[29] = second compound 3.16 µM, first compound 0.316 µM
[30] = second compound 3.16 µM, first compound 1 µM
[31] = second compound 3.16 µM, first compound 3.16 µM
[32] = second compound 3.16 µM, first compound 10 µM
[33] = second compound 10 µM, first compound 0.316 µM
[34] = second compound 10 µM, first compound 1 µM
[35] = second compound 10 µM, first compound 3.16 µM
[36] = second compound 10 µM, first compound 10 µM
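Also: spheroids exposed to the compounds for 7 days.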
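For viability, T/C in this document: 100% = DMSO vehicle control viability.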

Cn1ncnc1[C@H]1c2n[nH]c(=O)c3cc(F)cc(c23)N[C@@H]1c1ccc(F)cc1 + CN1CCN(c2cc(C(=O)Nc3cc4cc(-c5cnn(C)c5)ccc4cn3)ccn2)CC1
IC50 (second compound 0.0316 µM): > 100 nM | IC50 (second compound 0.1 µM): 91.4 nM | IC50 (second compound 0.316 µM): < 0.316 nM | IC50 (second compound 1 µM): < 0.316 nM | IC50 (second compound 3.16 µM): < 0.316 nM | IC50 (second compound 10 µM): < 0.316 nM | viability, T/C (second compound 0.0316 µM, first compound 0.000316 µM): 99.4% | viability, T/C (second compound 0.0316 µM, first compound 0.001 µM): 83.8% | viability, T/C (second compound 0.0316 µM, first compound 0.00316 µM): 80% | viability, T/C (second compound 0.0316 µM, first compound 0.01 µM): 89.2% | viability, T/C [1]: 62.2% | viability, T/C [2]: 68.2% | viability, T/C (second compound 0.1 µM, first compound 0.000316 µM): 83.9% | viability, T/C (second compound 0.1 µM, first compound 0.001 µM): 70.3% | viability, T/C (second compound 0.1 µM, first compound 0.00316 µM): 69.8% | viability, T/C (second compound 0.1 µM, first compound 0.01 µM): 66.6% | viability, T/C [3]: 43.8% | viability, T/C [4]: 53.8% | viability, T/C (second compound 0.316 µM, first compound 0.000316 µM): 17.1% | viability, T/C (second compound 0.316 µM, first compound 0.001 µM): 17.7% | viability, T/C (second compound 0.316 µM, first compound 0.00316 µM): 16.2% | viability, T/C (second compound 0.316 µM, first compound 0.01 µM): 11.9% | viability, T/C [5]: 18.8% | viability, T/C [6]: 15.2% | viability, T/C (second compound 1 µM, first compound 0.000316 µM): 0.34% | viability, T/C (second compound 1 µM, first compound 0.001 µM): 0.36% | viability, T/C (second compound 1 µM, first compound 0.00316 µM): 0.3% | viability, T/C (second compound 1 µM, first compound 0.01 µM): 0.19% | viability, T/C [7]: 0.26% | viability, T/C [8]: 0.38% | viability, T/C (second compound 3.16 µM, first compound 0.000316 µM): 0.15% | viability, T/C (second compound 3.16 µM, first compound 0.001 µM): 0.17% | viability, T/C (second compound 3.16 µM, first compound 0.00316 µM): 0.15% | viability, T/C (second compound 3.16 µM, first compound 0.01 µM): 0.18% | viability, T/C [9]: 0.12% | viability, T/C [10]: 0.29% | viability, T/C (second compound 10 µM, first compound 0.000316 µM): 0.11% | viability, T/C (second compound 10 µM, first compound 0.001 µM): 0.2% | viability, T/C (second compound 10 µM, first compound 0.00316 µM): 0.16% | viability, T/C (second compound 10 µM, first compound 0.01 µM): 0.18% | viability, T/C [11]: 0.2% | viability, T/C [12]: 0.2%

Nc1ccn(C2OC(CO)C(O)C2(F)F)c(=O)n1 (stereo unspecified) + CN1CCN(c2cc(C(=O)Nc3cc4cc(-c5cnn(C)c5)ccc4cn3)ccn2)CC1
IC50 (second compound 0.0316 µM): 489 nM | IC50 (second compound 0.1 µM): 463 nM | IC50 (second compound 0.316 µM): < 31.6 nM | IC50 (second compound 1 µM): < 31.6 nM | IC50 (second compound 3.16 µM): < 31.6 nM | IC50 (second compound 10 µM): < 31.6 nM | viability, T/C [1]: 80.5% | viability, T/C [2]: 72.9% | viability, T/C [13]: 58.7% | viability, T/C [14]: 37.6% | viability, T/C [15]: 20.5% | viability, T/C [16]: 26.1% | viability, T/C [3]: 62.2% | viability, T/C [4]: 70.5% | viability, T/C [17]: 61.4% | viability, T/C [18]: 26.8% | viability, T/C [19]: 19.9% | viability, T/C [20]: 24.1% | viability, T/C [5]: 14.3% | viability, T/C [6]: 14.6% | viability, T/C [21]: 11.8% | viability, T/C [22]: 9.83% | viability, T/C [23]: 11.6% | viability, T/C [24]: 11.8% | viability, T/C [7]: 0.24% | viability, T/C [8]: 0.22% | viability, T/C [25]: 0.33% | viability, T/C [26]: 0.18% | viability, T/C [27]: 0.28% | viability, T/C [28]: 0.2% | viability, T/C [9]: 0.26% | viability, T/C [10]: 0.23% | viability, T/C [29]: 0.16% | viability, T/C [30]: 0.18% | viability, T/C [31]: 0.19% | viability, T/C [32]: 0.43% | viability, T/C [11]: 0.14% | viability, T/C [12]: 0.19% | viability, T/C [33]: 0.23% | viability, T/C [34]: 0.2% | viability, T/C [35]: 0.25% | viability, T/C [36]: 1.04%

O=c1[nH]cc(F)c(=O)[nH]1 + CN1CCN(c2cc(C(=O)Nc3cc4cc(-c5cnn(C)c5)ccc4cn3)ccn2)CC1
IC50 (second compound 0.0316 µM): 2320 nM | IC50 (second compound 0.1 µM): 667 nM | IC50 (second compound 0.316 µM): < 31.6 nM | IC50 (second compound 1 µM): < 31.6 nM | IC50 (second compound 3.16 µM): < 31.6 nM | IC50 (second compound 10 µM): < 31.6 nM | viability, T/C [1]: 99.7% | viability, T/C [2]: 74.5% | viability, T/C [13]: 83.8% | viability, T/C [14]: 70.8% | viability, T/C [15]: 41.6% | viability, T/C [16]: 37% | viability, T/C [3]: 66.7% | viability, T/C [4]: 79% | viability, T/C [17]: 62.4% | viability, T/C [18]: 43.7% | viability, T/C [19]: 24.8% | viability, T/C [20]: 31% | viability, T/C [5]: 18.2% | viability, T/C [6]: 17.2% | viability, T/C [21]: 12.4% | viability, T/C [22]: 10.2% | viability, T/C [23]: 12.2% | viability, T/C [24]: 10.7% | viability, T/C [7]: 0.31% | viability, T/C [8]: 0.25% | viability, T/C [25]: 0.25% | viability, T/C [26]: 0.29% | viability, T/C [27]: 0.14% | viability, T/C [28]: 0.21% | viability, T/C [9]: 0.18% | viability, T/C [10]: 0.21% | viability, T/C [29]: 0.22% | viability, T/C [30]: 0.18% | viability, T/C [31]: 0.5% | viability, T/C [32]: 0.21% | viability, T/C [11]: 0.08% | viability, T/C [12]: 0.14% | viability, T/C [33]: 0.14% | viability, T/C [34]: 0.15% | viability, T/C [35]: 0.29% | viability, T/C [36]: 0.17%
